Data reported in patent US10016373B2, “CB2 receptor ligands for the treatment of psychiatric disorders” (priority 2013, dated 2018).
Like-named read-outs stand apart in the source and are kept apart here.

Key:
Assay type in all cases: in vivo
mice [1] = tested on: mice
Description: For the treated mice, one of the two CB2 receptor-selective agonist solutions: either CB2 agonist2 solution or H-308 solution, was administered by intravenous administration to mice pups to induce ADHD-like behavior and/or obsessive-compulsive-like behavior as a murine model for ADHD and OCD. […] In order to test the effect of non-agonist or mixed-type agonist/inverse agonist CB2 receptor ligands on hyperactivity, the effects of M1 were studied.
Open-Field Test (Crossing and Rearing, Defecation, Grooming)
Mice were assessed for hyperactive behavior on postnatal days 16-20, 26-39, at age 13 weeks and at age 23 weeks. Mice were placed in the center of a transparent glass cage 30×40×31 cm divided into squares of 7.5×7.5 cm. The number of squares crossed and the rearing activity were evaluated for 8 min.

mice [2] = experiment: Prepulse inhibition (PPI) of the startle reflex
Description: Attention Test: Prepulse Inhibition (PPI) of the Startle Reflex
A weak audible stimulus (74-90 dB tone) “prepulse” was used to inhibit the acoustic startle response to a subsequent strong audible stimulus (120 dB tone) “pulse”. Reduced prepulse inhibition of the startle reflex (PPI) was taken as an index of the positive symptoms of deficits in attention.
PPI was assessed similarly to the method described by Varty et al. (2001). Mice were placed in a startle chamber and allowed to acclimatize for 5 minutes A loudspeaker produced startling “pulse” at 120 dB and thereafter 65 dB background white noise or one of […] 20 ms duration “prepulses” at 74, 78, 82, 86, and 90 dB followed after 20 ms by a 40 ms startling “pulse” at 120 dB. The response of each mouse was recorded and stored by a computer. Each test session lasted for 11 minutes and consisted of 5 presentations of each of the prepulse/pulse sound stimuli (total of 30 or 35) presented in random order and separated by 15 second intervals. The magnitude of prepulse inhibition was calculated as percentage PPI=[1-(acoustic startle for prepulse+pulse)/(acoustic startle for pulse alone)]×100.

mice [3] = experiment: Impulsivity, Elevated Plus Maze; conditions: age 13 weeks, postnatal CB2 agonist2 5 mg/kg
Description: The treatment consisted of a single intravenous administration of the vehicle or the M1 solution Impulsivity was tested 24 hours after treatment.
Impulsivity as measured by the paucity of time spent on the two anxiety-provoking, open arms (as opposed to the two enclosed arms) of an “Elevated Plus Maze” was used as a parameter of negative symptoms of schizophrenia (Josselyn and Vaccarino, 1998). The plus maze was elevated 50 cm above the table top. Behavior of each mouse was recorded for 5 minutes by a video camera and scored using the “EthoVision” software (Noldus), measuring the number of entries as well as the amount of time spent in each arm, open or closed. Reduced time spent in the closed arms indicated reduced anxiety. Increased time spent in the opened arms indicated increased risk behavior (hyperactive and impulsive).
The treatment consisted of a single i.p. administration of the vehicle or the M1 solution. The duration ratio open arm/close arm and the frequency ratio open arm/close arm in the Elevated Plus Maze were evaluated 24 hours after treatment with either vehicle or M1.

mice [4] = experiment: Vocal tics, ultrasonic voice recording
Description: Mice were recorded at the age of 13 or 23-25 weeks with an ultrasonic voice recorder (Noldus). Mice were recorded at the age of 29 days with an ultrasonic voice recorder (AviSoft). Single mice were recorded in a cage for 10 min (according to sex and type of treatment). The number and duration of events at 20-40 kHz and at 50-70 kHz were analyzed. In some experiments, 24 h following M1 treatment, each mouse was recorded for 10 min before and after stress. Stress was induced by incubation for 10-15 min in a mouse restrainer.

mice [5] = experiment: Motor tics in the open field test

With C=C1CC/C=C(\C)CC[C@@H]2[C@@H]1CC2(C)C [CB2 agonist2, beta-caryophyllene] the grooming (mice [1]; CB2 agonist2 0.5 mg/kg at the age of 3-15 days, M1 5 mg/kg on day 29, measured on day 39, stressed female mice, FIG. 13A) was “increased”, the feces secretion (mice [1]; CB2 agonist2 0.5 mg/kg at the age of 3-15 days, M1 5 mg/kg on day 29, measured on day 39, stressed female mice, FIG. 13B) was “increased” and the rearing (mice [1]; CB2 agonist2 0.5 mg/kg at the age of 3-15 days, M1 on day 29, measured on day 36, unstressed female mice, FIG. 12A) was “increased”. For the same molecule, the ambulation (mice [1]; CB2 agonist2 0.5 mg/kg at the age of 3-15 days, M1 on day 29, measured on day 39, stressed female mice, FIG. 12B) was “increased”, the ambulation (mice [1]; CB2 agonist2 0.5 mg/kg at the age of 3-15 days, measured on day 26, unstressed females, FIG. 11A) was “increased” and the rearing (mice [1]; CB2 agonist2 0.5 mg/kg at the age of 3-15 days, measured on day 26, unstressed females, FIG. 11C) was “increased”. The ambulation (mice [1]; model mice 5 mg/kg CB2 agonist2 postnatal days 1-5, M1 5 mg/kg single i.p. at 13 weeks, 30 minutes after treatment, FIG. 5A) was “increase”, the rearing (mice [1]; model mice 5 mg/kg CB2 agonist2 postnatal days 1-5, M1 5 mg/kg single i.p. at 13 weeks, 30 minutes after treatment, FIG. 5B) was “increase” and the secretion of feces (mice [1]; model mice 5 mg/kg CB2 agonist2 postnatal days 5-13, M1 5 mg/kg single i.p. at 23 weeks, FIG. 4C) was “decreased”. For the same molecule, the grooming duration (mice [1]; model mice 5 mg/kg CB2 agonist2 postnatal days 5-13, M1 5 mg/kg single i.p. at 23 weeks, tested 48 hours after treatment, FIG. 4A) was “increased”, the grooming frequency (mice [1]; model mice 5 mg/kg CB2 agonist2 postnatal days 5-13, M1 5 mg/kg single i.p. at 23 weeks, tested 48 hours after treatment, FIG. 4B) was “increased” and the ambulation (mice [1]; open field test at postnatal days 16-19, 5 mg/kg CB2 agonist2 at postnatal days 5-13, FIG. 1A) was “increased”. The rearing (mice [1]; open field test at postnatal days 16-19, 5 mg/kg CB2 agonist2 at postnatal days 5-13, FIG. 1B) was “increased”, the ambulation (mice [1]; open field test at postnatal days 16-19, 10 mg/kg CB2 agonist2 at postnatal days 5-13, FIG. 1C) was “increased” and the rearing (mice [1]; open field test at postnatal days 16-19, 10 mg/kg CB2 agonist2 at postnatal days 5-13, FIG. 1D) was “increased”. The percent pre-pulse inhibition (mice [2]; female mice treated with CB2 agonist2 at postnatal days 5-13, FIG. 3B) was “decreased”, the acoustic startle (mice [2]; model mice vs control mice at the age of 8 weeks, FIG. 3A) was “not significantly different” and the “ratio of duration in the open arm/close arm” value (mice [3]; females, FIG. 6A) was “increased”. The “ratio of duration in the open arm/close arm” value (mice [3]; males+females, FIG. 6B) was “increased”, the “number of vocal events” value (mice [4]; 20-40 KHz, day 29, female mice, CB2 agonist2 0.5 mg/kg at the age of 3-15 days, M1 5 mg/kg on day 29, FIG. 14A) was “increased” and the duration of vocals (mice [4]; 20-40 KHz, day 29, female mice, CB2 agonist2 0.5 mg/kg at the age of 3-15 days, M1 5 mg/kg on day 29, FIG. 14B) was “increased”. The “number of vocal events” value (mice [4]; female mice 23-25 weeks, 20-40 KHz, stress, CB2 agonist2 5 mg/kg postnatal days 5-13, M1 given to model mice, FIG. 7A) was “increased”, the “total duration of vocal events” value (mice [4]; female mice 23-25 weeks, 20-40 KHz, stress, CB2 agonist2 5 mg/kg postnatal days 5-13, M1 given to model mice, FIG. 7B) was “increased” and the “mean duration of vocal events” value (mice [4]; female mice 23-25 weeks, 20-40 KHz, stress, CB2 agonist2 5 mg/kg postnatal days 5-13, M1 given to model mice, FIG. 7C) was “increased”. For the same molecule, the “number of vocal events” value (mice [4]; female mice 23-25 weeks, 50-70 KHz, stress, CB2 agonist2 5 mg/kg postnatal days 5-13, M1 given to model mice, FIG. 8A) was “increased”, the “total duration of vocal events” value (mice [4]; female mice 23-25 weeks, 50-70 KHz, stress, CB2 agonist2 5 mg/kg postnatal days 5-13, M1 given to model mice, FIG. 8B) was “increased” and the “mean duration of vocal events” value (mice [4]; female mice 23-25 weeks, 50-70 KHz, stress, CB2 agonist2 5 mg/kg postnatal days 5-13, M1 given to model mice, FIG. 8C) was “increased”. The “total duration of vocal events” value (mice [4]; male mice 23-25 weeks, 20-40 KHz, before stress, CB2 agonist2 5 mg/kg postnatal days 5-13, M1 given to model mice, FIG. 9A) was “increased”, the “mean duration of vocal events” value (mice [4]; male mice 23-25 weeks, 20-40 KHz, before stress, CB2 agonist2 5 mg/kg postnatal days 5-13, M1 given to model mice, FIG. 9B) was “increased” and the “total duration of vocal events” value (mice [4]; male mice 23-25 weeks, 50-70 KHz, before stress, CB2 agonist2 5 mg/kg postnatal days 5-13, M1 given to model mice, FIG. 10A) was “increased”. The “mean duration of vocal events” value (mice [4]; male mice 23-25 weeks, 50-70 KHz, before stress, CB2 agonist2 5 mg/kg postnatal days 5-13, M1 given to model mice, FIG. 10B) was “increased”.
For CCCCCCC(C)(C)c1cc(OC)c([C@@H]2C=C(CO)[C@@H]3C[C@H]2C3(C)C)c(OC)c1 [HU-308, [(1R,2R,5R)-2-[2,6-dimethoxy-4-(2-methyloctan-2-yl)phenyl]-7,7-dimethyl-4-bicyclo[3.1.1]hept-3-enyl]methanol], the hyperactivity (mice [1]; age of 3 months, 0.1 mg/kg HU-308, M1 5 mg/kg in gavage 30 minutes before the experiment, FIGS. 17A-B) was “induced”, the ambulation (mice [1]; open field test at postnatal days 16-19, 5 mg/kg HU-308 at postnatal days 5-13, FIG. 2A) was “increased” and the rearing (mice [1]; open field test at postnatal days 16-19, 5 mg/kg HU-308 at postnatal days 5-13, FIG. 2B) was “increased”. For the same molecule, the percent pre-pulse inhibition (mice [2]; female mice injected with HU-308 at postnatal days 5-13, FIG. 3D) was “decreased”, the percent pre-pulse inhibition (mice [2]; male mice injected with HU-308 at postnatal days 5-13, FIG. 3C) was “decreased” and the “abnormal motor tics/head twitches” value (mice [5]; HU-308 5 mg/kg during postnatal days 5-13, age of 12 weeks, open field test) was “induced”. The “Number of tics, Total” value (mice [5]; HU-308 5 mg/kg postnatal days 5-13, age 12 weeks, total over the recording) was 18.
